Experimental data as given in patent publication US11407767B2, “Heterocyclyl substituted pyrrolopyridines that are inhibitors of the CDK12 kinase” (The University of Nottingham, priority 2017, dated 2022).
Structures can show the parent of a compound that is named as a salt. Each block holds one compound with its values, some of them ahead of it.

Biological target: CDK12/CycK (Homo sapiens, UniProt Q9NYV4)
Assay: Inhibition of CDK12 (ADP-Glo kinase assay)
Format: biochemical
Conditions: 60 nM CDK12/CycK, 30 minutes pre-incubation, 1 μM ATP, 0.5 μM RBER-IRStide substrate, 1 h at 25° C., read-out: CDK12/cyclin K IC50
Protocol: Assay buffer comprised 50 mM HEPES pH 7.5, 1 mM DTT, 20 mM MgCl2, 3 mM MnCl2, 3 μM Na3VO4 and 50 μg/ml PEG8000. Kinase reactions were carried out in 384-well Optiplates™ (PerkinElmer 6007299). Test compounds were dissolved & diluted in dimethyl sulfoxide (DMSO) and cross diluted into assay buffer with a final DMSO concentration of 1% (v/v) in the assay. Test compounds (or 1% DMSO in control and blank wells) were pre-incubated with 60 nM CDK12/CycK for 30 minutes. After this time 1 μM Adenosine-5′-triphosphate (ATP) and 0.5 μM RBER-IRStide substrate (ProQinase 0863-0000-1) were added to commence the kinase reaction. Incubations were carried out for 1 h at 25° C. with kinase activity determined using the ADP-Glo™ reagent from Promega according to the manufacturer's instructions. Light generated is proportional to kinase activity and measured using a luminometer (EnVision, PerkinElmer). The signal obtained in the blank wells (containing no kinase) was subtracted from all other wells and IC50 values were determined by fitting a sigmoidal curve to % inhibition of control versus Log10 compound concentration.

Sequence of CDK12/CycK (Q9NYV4 whole entry): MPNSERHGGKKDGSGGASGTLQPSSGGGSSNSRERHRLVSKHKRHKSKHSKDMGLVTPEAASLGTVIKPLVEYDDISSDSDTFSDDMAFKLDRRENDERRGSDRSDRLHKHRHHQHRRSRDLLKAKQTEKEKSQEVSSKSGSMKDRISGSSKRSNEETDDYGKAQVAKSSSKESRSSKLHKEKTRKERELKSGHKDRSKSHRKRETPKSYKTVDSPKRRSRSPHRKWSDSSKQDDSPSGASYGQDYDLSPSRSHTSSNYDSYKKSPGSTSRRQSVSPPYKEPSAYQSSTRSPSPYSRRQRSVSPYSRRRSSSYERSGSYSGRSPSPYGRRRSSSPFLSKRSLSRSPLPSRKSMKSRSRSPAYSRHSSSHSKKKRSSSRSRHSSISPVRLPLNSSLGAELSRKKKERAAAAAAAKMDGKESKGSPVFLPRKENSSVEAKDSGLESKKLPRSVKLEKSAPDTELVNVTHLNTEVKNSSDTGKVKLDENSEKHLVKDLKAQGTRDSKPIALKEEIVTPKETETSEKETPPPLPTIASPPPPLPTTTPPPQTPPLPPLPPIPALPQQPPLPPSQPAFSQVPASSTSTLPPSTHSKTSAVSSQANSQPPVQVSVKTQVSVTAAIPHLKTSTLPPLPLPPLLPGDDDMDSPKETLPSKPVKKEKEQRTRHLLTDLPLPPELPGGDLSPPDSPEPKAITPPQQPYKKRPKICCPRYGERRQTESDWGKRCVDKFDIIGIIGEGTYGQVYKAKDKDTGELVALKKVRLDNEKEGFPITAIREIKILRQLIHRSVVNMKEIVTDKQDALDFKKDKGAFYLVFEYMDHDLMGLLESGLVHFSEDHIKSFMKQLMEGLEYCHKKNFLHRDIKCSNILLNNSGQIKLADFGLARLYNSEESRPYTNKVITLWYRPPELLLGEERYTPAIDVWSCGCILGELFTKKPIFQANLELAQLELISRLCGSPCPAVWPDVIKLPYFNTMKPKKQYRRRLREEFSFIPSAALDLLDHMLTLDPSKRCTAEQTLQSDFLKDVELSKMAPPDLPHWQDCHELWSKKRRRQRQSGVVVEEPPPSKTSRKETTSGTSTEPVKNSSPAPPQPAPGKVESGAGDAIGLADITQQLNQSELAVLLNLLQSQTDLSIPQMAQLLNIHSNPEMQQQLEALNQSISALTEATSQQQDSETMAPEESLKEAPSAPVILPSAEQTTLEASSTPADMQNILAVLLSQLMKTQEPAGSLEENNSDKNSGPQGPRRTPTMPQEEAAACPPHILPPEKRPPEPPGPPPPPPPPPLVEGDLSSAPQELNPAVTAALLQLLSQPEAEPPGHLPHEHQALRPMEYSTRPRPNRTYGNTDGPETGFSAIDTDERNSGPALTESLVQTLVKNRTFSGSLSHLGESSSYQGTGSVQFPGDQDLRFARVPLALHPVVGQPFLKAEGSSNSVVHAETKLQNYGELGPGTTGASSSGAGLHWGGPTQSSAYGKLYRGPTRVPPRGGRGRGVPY
Sequence of CDK12/CycK (O75909 whole entry partner): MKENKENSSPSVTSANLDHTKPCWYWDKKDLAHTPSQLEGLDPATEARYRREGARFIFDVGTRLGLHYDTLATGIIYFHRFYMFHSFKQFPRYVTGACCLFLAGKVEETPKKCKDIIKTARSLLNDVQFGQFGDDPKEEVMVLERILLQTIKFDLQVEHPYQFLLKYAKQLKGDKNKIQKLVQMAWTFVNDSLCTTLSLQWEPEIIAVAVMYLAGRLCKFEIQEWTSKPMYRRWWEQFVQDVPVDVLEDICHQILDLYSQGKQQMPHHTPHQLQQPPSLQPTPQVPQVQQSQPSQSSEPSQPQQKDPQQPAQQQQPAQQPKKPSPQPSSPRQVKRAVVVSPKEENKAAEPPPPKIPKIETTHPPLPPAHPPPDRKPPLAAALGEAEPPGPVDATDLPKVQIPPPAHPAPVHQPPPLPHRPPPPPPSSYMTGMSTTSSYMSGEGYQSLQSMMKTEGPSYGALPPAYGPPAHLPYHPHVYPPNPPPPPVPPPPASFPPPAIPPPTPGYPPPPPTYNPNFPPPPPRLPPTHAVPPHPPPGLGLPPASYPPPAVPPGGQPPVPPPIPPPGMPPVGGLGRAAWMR

SMILES: C=CC(=O)Nc1cccc(C(=O)NCCc2cc3c(-c4cnn5ncccc45)c(Cl)cnc3[nH]2)c1 [Example 56, 3-Acrylamido-N-(2-(5-chloro-4-(pyrazolo[1,5-b]pyridazin-3-yl)-1H-pyrrolo[2,3-b]pyridin-2-yl)ethyl)benzamide]
IC50: < 100 nM

SMILES: C=CC(=O)N[C@@H]1CC[C@@H](C(=O)NCCc2cc3c(-c4cnn5ncccc45)ccnc3[nH]2)C1 [Example 64, (1R,3R)-3-Acrylamido-N-(2-(4-(pyrazolo[1,5-b]pyridazin-3-yl)-1H-pyrrolo[2,3-b]pyridin-2-yl)ethyl)cyclopentane-1-carboxamide]
IC50: 100 to 1000 nM

SMILES: C=CC(=O)N1CCOC(C(=O)NCCc2cc3c(-c4cnn5ncccc45)ccnc3[nH]2)C1 (stereo not drawn) [Example 60, 4-Acryloyl-N-(2-(4-(pyrazolo[1,5-b]pyridazin-3-yl)-1H-pyrrolo[2,3-b]pyridin-2-yl)ethyl)morpholine-2-carboxamide]
IC50: < 100 nM

SMILES: CN(C)C/C=C/C(=O)Nc1cncc(C(=O)N2CC[C@H](c3cc4c(-c5cnn6ncccc56)ccnc4[nH]3)C2)c1 [Example 68, (S,E)-4-(Dimethylamino)-N-(5-(3-(4-(pyrazolo[1,5-b]pyridazin-3-yl)-1H-pyrrolo[2,3-b]pyridin-2-yl)pyrrolidine-1-carbonyl)pyridin-3-yl)but-2-enamide]
IC50: < 100 nM

SMILES: CN(C)C/C=C/C(=O)N1CCCC[C@H]1C(=O)NCCc1cc2c(-c3cnn4ncccc34)ccnc2[nH]1 [Example 87, (S,E)-1-(4-(Dimethylamino)but-2-enoyl)-N-(2-(4-(pyrazolo[1,5-b]pyridazin-3-yl)-1H-pyrrolo[2,3-b]pyridin-2-yl)ethyl)piperidine-2-carboxamide]
IC50: 1000 to 30000 nM

SMILES: C=CC(=O)N1CCCC[C@@H]1C(=O)NCCc1cc2c(-c3cnn4ncccc34)ccnc2[nH]1 [Example 93, (R)-1-Acryloyl-N-(2-(4-(pyrazolo[1,5-b]pyridazin-3-yl)-1H-pyrrolo[2,3-b]pyridin-2-yl)ethyl)piperidine-2-carboxamide]
IC50: < 100 nM

SMILES: O=C(NCCc1cc2c(-c3cnn4ncccc34)ccnc2[nH]1)[C@@H]1CCCN1C(=O)CCl [Example 41, (S)-1-(2-Chloroacetyl)-N-(2-(4-(pyrazolo[1,5-b]pyridazin-3-yl)-1H-pyrrolo[2,3-b]pyridin-2-yl)ethyl)pyrrolidine-2-carboxamide]
IC50: 100 to 1000 nM

SMILES: O=C(NCCc1cc2c(-c3cnn4ncccc34)ccnc2[nH]1)[C@@H]1CCCN1C(=O)/C=C/CN1CCCC1 [Example 85, (S,E)-N-(2-(4-(pyrazolo[1,5-b]pyridazin-3-yl)-1H-pyrrolo[2,3-b]pyridin-2-yl)ethyl)-1-(4-(pyrrolidin-1-yl)but-2-enoyl)pyrrolidine-2-carboxamide]
IC50: 1000 to 30000 nM

SMILES: NCCc1cc2c(-c3cnn4ncccc34)ccnc2[nH]1 [Example 30, 2-(4-(Pyrazolo[1,5-b]pyridazin-3-yl)-1H-pyrrolo[2,3-b]pyridin-2-yl)ethan-1-amine]
IC50: 100 to 1000 nM

SMILES: C=CC(=O)Nc1cccc(C(=O)N(C)CCc2cc3c(-c4cnn5ncccc45)ccnc3[nH]2)c1 [Example 49, 3-Acrylamido-N-methyl-N-(2-(4-(pyrazolo[1,5-b]pyridazin-3-yl)-1H-pyrrolo[2,3-b]pyridin-2-yl)ethyl)benzamide]
IC50: 100 to 1000 nM

SMILES: CN(C)C(=O)c1cc2c(-c3cnn4ncccc34)ccnc2[nH]1 [Example 2, N,N-Dimethyl-4-(pyrazolo[1,5-b]pyridazin-3-yl)-1H-pyrrolo[2,3-b]pyridine-2-carboxamide]
IC50: 1000 to 30000 nM

Second part, the compound after the results:

IC50: 1000 to 30000 nM
SMILES: C=CC(=O)N1CC[C@H](C(=O)NCc2cc3c(-c4cnn5ncccc45)ccnc3[nH]2)C1 [Example 178, (S)-1-Acryloyl-N-((4-(pyrazolo[1,5-b]pyridazin-3-yl)-1H-pyrrolo[2,3-b]pyridin-2-yl)methyl)pyrrolidine-3-carboxamide]

IC50: 1000 to 30000 nM
SMILES: CN(C)CC(=O)NCc1cc2c(-c3cnn4ncccc34)ccnc2[nH]1 [Example 117, 2-(Dimethylamino)-N-((4-(pyrazolo[1,5-b]pyridazin-3-yl)-1H-pyrrolo[2,3-b]pyridin-2-yl)methyl)acetamide Formate Salt]

IC50: < 100 nM
SMILES: Nc1cccc(-c2cc3c(-c4cnn5ncccc45)ccnc3[nH]2)c1 [Example 114, 3-(4-(Pyrazolo[1,5-b]pyridazin-3-yl)-1H-pyrrolo[2,3-b]pyridin-2-yl)aniline]

IC50: 1000 to 30000 nM
SMILES: O=S(=O)(NCc1cc2c(-c3cnn4ncccc34)ccnc2[nH]1)C1CC1 [Example 118, N-((4-(Pyrazolo[1,5-b]pyridazin-3-yl)-1H-pyrrolo[2,3-b]pyridin-2-yl)methyl)cyclopropanesulfonamide]

IC50: < 100 nM
SMILES: C=CC(=O)N1CCC[C@H]1C(=O)N1CCC(c2cc3c(-c4cnn5ncccc45)ccnc3[nH]2)CC1 [Example 194, (S)-1-(2-(4-(4-(Pyrazolo[1,5-b]pyridazin-3-yl)-1H-pyrrolo[2,3-b]pyridin-2-yl)piperidine-1-carbonyl)pyrrolidin-1-yl)prop-2-en-1-one]

IC50: < 100 nM
SMILES: O=C(CCl)NCC(=O)N1CCC(c2cc3c(-c4cnn5ncccc45)ccnc3[nH]2)C1 (stereo not drawn) [Example 157, 2-Chloro-N-(2-oxo-2-(3-(4-(pyrazolo[1,5-b]pyridazin-3-yl)-1H-pyrrolo[2,3-b]pyridin-2-yl)pyrrolidin-1-yl)ethyl)acetamide]

IC50: 100 to 1000 nM
SMILES: c1cnn2ncc(-c3ccnc4[nH]c([C@H]5CCNC5)cc34)c2c1 (single isomer, unassigned) [Example 125, 3-(2-(Pyrrolidin-3-yl)-1H-pyrrolo[2,3-b]pyridin-4-yl)pyrazolo[1,5-b]pyridazine]

IC50: 1000 to 30000 nM
SMILES: OCC(O)COc1cnn2ncc(-c3ccnc4[nH]ccc34)c2c1 (stereo not drawn) [Example 131, 3-((3-(1H-Pyrrolo[2,3-b]pyridin-4-yl)pyrazolo[1,5-b]pyridazin-5-yl)oxy)propane-1,2-diol]

IC50: 1000 to 30000 nM
SMILES: C=CC(=O)N1CCC[C@H]1C(=O)NCCc1cc2c(-c3cccnc3)ccnc2[nH]1 [Example 105, (S)-1-Acryloyl-N-(2-(4-(pyridin-3-yl)-1H-pyrrolo[2,3-b]pyridin-2-yl)ethyl)pyrrolidine-2-carboxamide]

IC50: 100 to 1000 nM
SMILES: c1cnn2ncc(-c3ccnc4[nH]c([C@@H]5CCNC5)cc34)c2c1 (single isomer, unassigned) [Example 124, 3-(2-(Pyrrolidin-3-yl)-1H-pyrrolo[2,3-b]pyridin-4-yl)pyrazolo[1,5-b]pyridazine]

IC50: < 100 nM
SMILES: C=CC(=O)Nc1cccc(C(=O)Nc2cccc(-c3cc4c(-c5cnn6ncccc56)ccnc4[nH]3)c2)c1 [Example 115, 3-Acrylamido-N-(3-(4-(pyrazolo[1,5-b]pyridazin-3-yl)-1H-pyrrolo[2,3-b]pyridin-2-yl)phenyl)benzamide]

IC50: < 100 nM
SMILES: C=CC(=O)N1CCC[C@@H]1C(=O)N1CCC(c2cc3c(-c4cnn5ncccc45)ccnc3[nH]2)CC1 [Example 195, (R)-1-(2-(4-(4-(pPyrazolo[1,5-b]pyridazin-3-yl)-1H-pyrrolo[2,3-b]pyridin-2-yl)piperidine-1-carbonyl)pyrrolidin-1-yl)prop-2-en-1-one]

IC50: 1000 to 30000 nM
SMILES: C=CC(=O)N1CCC[C@@H](C(=O)NCc2cc3c(-c4cnn5ncccc45)ccnc3[nH]2)C1 [Example 184, (R)-1-Acryloyl-N-((4-(pyrazolo[1,5-b]pyridazin-3-yl)-1H-pyrrolo[2,3-b]pyridin-2-yl)methyl)piperidine-3-carboxamide]
